{"source": "patent US11617726B2", "about": "“Method for preventing, treating, or ameliorating a microbial infection” (priority 2018, dated 2023)", "tested_on": "Acinetobacter baumannii isolates", "assay": "Antimicrobial susceptibility test, disc diffusion method (CLSI M100-S24)", "assay_type": "cell-based", "parameters": "key to Inhibition zone: “NZ” indicated that no zone of inhibition was observed", "settings": "for Inhibition zone: disc diffusion; for susceptibility category: LEV disc", "procedure": "A total of 33 non-duplicate, non-consecutive clinical isolates of Multi-Drug Resistant (MDR) Acinetobacter baumannii were collected from burn wards (“AB1-AB33”). Acinetobacter baumannii ATCC BAA 747 and Pseudomonas aeruginosa ATCC 27853 were used as control strains. The isolates were stored at −80° C. in trypticase soy broth containing 20% glycerol.\nAntimicrobial susceptibility tests of the collection of isolates were conducted using the disc diffusion method. The experiment was performed according to the recommendations and guidelines of Clinical Laboratory Standard Institutes (CLSI M100-S24; 2014). Clinical and Laboratory Standards Institute (CLSI), “Performance standards for antimicrobial susceptibility testing; twenty-fourth informational supplement,” Document M100-S24, Clinical and Laboratory Standards Institute (CLSI), Wayne, Pa., USA, 2014.\nA panel of commercial antibiotic discs (Amoxicillin (AMX), Amoxicillin/clavulanic acid (AMX/CLA), Piperacillin (PIP), Piperacillin/Tazobactam (PIP/TAZ), Ceftazidime (CAZ), Cefotaxime (CTX), Cefepime (FEP), Cefoxitin (FOX), Aztreonam (ATM), Imipenem (IP), Gentamicin (GEN), Amikacin (AK), Neomycin (NEO), Levofloxacin (LEV), Chloramphenicol (CHL), Tetracycline (TET), sulfamethoxazole/trimethoprim (SUL/TRI) was used for susceptibility testing. All commercial antibiotic discs were purchased from BBL (Becton Dickinson, USA).\nForty grams of Mueller-Hinton Agar (MHA) were suspended in 1 Liter distilled water and then boiled to dissolve the powder completely. The medium was sterilized by autoclaving at 121° C. for 15 min. After autoclaving, the medium was cooled to 45° C. and 25 mL of molten agar media was poured into sterile Petri dishes (90 mm diameter) to give a depth of about 4 mm. The surface of the agar was dried to remove excess moisture before use. The plates were stored at 4-8° C. in sealed plastic bags if not used immediately.\nThe inoculum suspension was prepared by selecting three to five morphologically similar colonies from overnight growth (16-24 h of incubation) on blood agar medium. […] The suspension density was measured using a UV spectrophotometer calibrated with a 0.5 McFarland standard. The density of the suspension was adjusted to McFarland 0.5 by addition of saline or more microorganisms. The adjusted inoculum suspension was used within 60 min of preparation.\nA sterile cotton swab was dipped into the bacterial suspension and the excess fluid was removed by turning the swab against the inside wall of the tube to avoid over-inoculation of plates. The inoculum was spread evenly over the entire surface of the agar plate by swabbing in three directions.\nThe predetermined panel of antimicrobial disks was applied firmly on the inoculated Mueller-Hinton agar surface within 15 min of inoculation of the plates by a disc dispenser device. A maximum of six disks were accommodated on a 90-mm circular plate.\nWithin 15 min of application of antimicrobial disks, the plates were inverted and incubated aerobically at 35-37° C. for 18-20 h.\nAfter incubation, inhibition zones were measured at the point where no obvious growth is detected by the unaided eye when the plate is held about 30 cm from the eye. Inhibition zone diameters were measured to the nearest millimeter with a ruler. The plates were read from the back of the plate with reflected light against a dark background. Zone diameters were interpreted and categorized as susceptible “S”, intermediate “I”, or resistant “R” according to the CLSI clinical breakpoint tables (see Table 1 and Table 2)."}
{"smiles": "CCN1CCN(C(=O)N[C@@H](C(=O)N[C@@H]2C(=O)N3[C@@H]2SC(C)(C)[C@@H]3C(=O)O)c2ccccc2)C(=O)C1=O", "note": "[PIP, Piperacillin]", "values": [{"measurement": "Inhibition zone", "setting": "isolate AB1", "result": 21, "unit": "mm"}, {"measurement": "Inhibition zone", "setting": "isolate AB2", "result": 20, "unit": "mm"}, {"measurement": "Inhibition zone", "setting": "isolate AB3", "result": 32, "unit": "mm"}, {"measurement": "Inhibition zone", "setting": "isolate AB4", "result": 21, "unit": "mm"}, {"measurement": "Inhibition zone", "setting": "isolate AB5", "result": "NZ"}, {"measurement": "Inhibition zone", "setting": "isolate AB6", "result": 18, "unit": "mm"}, {"measurement": "Inhibition zone", "setting": "isolate AB7", "result": "NZ"}, {"measurement": "Inhibition zone", "setting": "isolate AB8", "result": "NZ"}, {"measurement": "Inhibition zone", "setting": "isolate AB9", "result": 24, "unit": "mm"}, {"measurement": "Inhibition zone", "setting": "isolate AB10", "result": "NZ"}, {"measurement": "Inhibition zone", "setting": "isolate AB11", "result": "NZ"}, {"measurement": "Inhibition zone", "setting": "isolate AB12", "result": "NZ"}, {"measurement": "Inhibition zone", "setting": "isolate AB13", "result": "NZ"}, {"measurement": "Inhibition zone", "setting": "isolate AB14", "result": "NZ"}, {"measurement": "Inhibition zone", "setting": "isolate AB15", "result": "NZ"}, {"measurement": "Inhibition zone", "setting": "isolate AB16", "result": 16, "unit": "mm"}, {"measurement": "Inhibition zone", "setting": "isolate AB17", "result": 15, "unit": "mm"}, {"measurement": "Inhibition zone", "setting": "isolate AB18", "result": 8, "unit": "mm"}, {"measurement": "Inhibition zone", "setting": "isolate AB19", "result": "NZ"}, {"measurement": "Inhibition zone", "setting": "isolate AB20", "result": "NZ"}, {"measurement": "Inhibition zone", "setting": "isolate AB21", "result": "NZ"}, {"measurement": "Inhibition zone", "setting": "isolate AB22", "result": "NZ"}, {"measurement": "Inhibition zone", "setting": "isolate AB23", "result": "NZ"}, {"measurement": "Inhibition zone", "setting": "isolate AB24", "result": "NZ"}, {"measurement": "Inhibition zone", "setting": "isolate AB25", "result": 10, "unit": "mm"}, {"measurement": "Inhibition zone", "setting": "isolate AB26", "result": "NZ"}, {"measurement": "Inhibition zone", "setting": "isolate AB27", "result": 8, "unit": "mm"}, {"measurement": "Inhibition zone", "setting": "isolate AB28", "result": 7, "unit": "mm"}, {"measurement": "Inhibition zone", "setting": "isolate AB29", "result": "NZ"}, {"measurement": "Inhibition zone", "setting": "isolate AB30", "result": 8, "unit": "mm"}, {"measurement": "Inhibition zone", "setting": "isolate AB31", "result": 8, "unit": "mm"}, {"measurement": "Inhibition zone", "setting": "isolate AB32", "result": 8, "unit": "mm"}, {"measurement": "Inhibition zone", "setting": "isolate AB33", "result": 22, "unit": "mm"}]}
{"smiles": "C[C@H]1COc2c(N3CCN(C)CC3)c(F)cc3c(=O)c(C(=O)O)cn1c23", "note": "[LEV, Levofloxacin]", "values": [{"measurement": "susceptibility category", "setting": "isolate AB1", "result": "S (Sensitive ≥17)"}, {"measurement": "Inhibition zone", "setting": "isolate AB1", "result": 30, "unit": "mm"}, {"measurement": "susceptibility category", "setting": "isolate AB2", "result": "S (Sensitive ≥17)"}, {"measurement": "Inhibition zone", "setting": "isolate AB2", "result": 30, "unit": "mm"}, {"measurement": "susceptibility category", "setting": "isolate AB3", "result": "S (Sensitive ≥17)"}, {"measurement": "Inhibition zone", "setting": "isolate AB3", "result": 29, "unit": "mm"}, {"measurement": "susceptibility category", "setting": "isolate AB4", "result": "S (Sensitive ≥17)"}, {"measurement": "Inhibition zone", "setting": "isolate AB4", "result": 30, "unit": "mm"}, {"measurement": "susceptibility category", "setting": "isolate AB5", "result": "S (Sensitive ≥17)"}, {"measurement": "Inhibition zone", "setting": "isolate AB5", "result": 19, "unit": "mm"}, {"measurement": "susceptibility category", "setting": "isolate AB6", "result": "S (Sensitive ≥17)"}, {"measurement": "Inhibition zone", "setting": "isolate AB6", "result": 21, "unit": "mm"}, {"measurement": "susceptibility category", "setting": "isolate AB7", "result": "I (Intermediate 14-16)"}, {"measurement": "Inhibition zone", "setting": "isolate AB7", "result": 14, "unit": "mm"}, {"measurement": "susceptibility category", "setting": "isolate AB8", "result": "I (Intermediate 14-16)"}, {"measurement": "Inhibition zone", "setting": "isolate AB8", "result": 15, "unit": "mm"}, {"measurement": "susceptibility category", "setting": "isolate AB9", "result": "S (Sensitive ≥17)"}, {"measurement": "Inhibition zone", "setting": "isolate AB9", "result": 28, "unit": "mm"}, {"measurement": "susceptibility category", "setting": "isolate AB10", "result": "I (Intermediate 14-16)"}, {"measurement": "Inhibition zone", "setting": "isolate AB10", "result": 14, "unit": "mm"}, {"measurement": "susceptibility category", "setting": "isolate AB11", "result": "R (Resistant ≤13)"}, {"measurement": "Inhibition zone", "setting": "isolate AB11", "result": 11, "unit": "mm"}, {"measurement": "susceptibility category", "setting": "isolate AB12", "result": "R (Resistant ≤13)"}, {"measurement": "Inhibition zone", "setting": "isolate AB12", "result": 10, "unit": "mm"}, {"measurement": "susceptibility category", "setting": "isolate AB13", "result": "R (Resistant ≤13)"}, {"measurement": "Inhibition zone", "setting": "isolate AB13", "result": 8, "unit": "mm"}, {"measurement": "susceptibility category", "setting": "isolate AB14", "result": "R (Resistant ≤13)"}, {"measurement": "Inhibition zone", "setting": "isolate AB14", "result": 11, "unit": "mm"}, {"measurement": "susceptibility category", "setting": "isolate AB15", "result": "I (Intermediate 14-16)"}, {"measurement": "Inhibition zone", "setting": "isolate AB15", "result": 15, "unit": "mm"}, {"measurement": "susceptibility category", "setting": "isolate AB16", "result": "R (Resistant ≤13)"}, {"measurement": "Inhibition zone", "setting": "isolate AB16", "result": "NZ"}, {"measurement": "susceptibility category", "setting": "isolate AB17", "result": "R (Resistant ≤13)"}, {"measurement": "Inhibition zone", "setting": "isolate AB17", "result": 11, "unit": "mm"}, {"measurement": "susceptibility category", "setting": "isolate AB18", "result": "R (Resistant ≤13)"}, {"measurement": "Inhibition zone", "setting": "isolate AB18", "result": 13, "unit": "mm"}, {"measurement": "susceptibility category", "setting": "isolate AB19", "result": "R (Resistant ≤13)"}, {"measurement": "Inhibition zone", "setting": "isolate AB19", "result": 11, "unit": "mm"}, {"measurement": "susceptibility category", "setting": "isolate AB20", "result": "R (Resistant ≤13)"}, {"measurement": "Inhibition zone", "setting": "isolate AB20", "result": 13, "unit": "mm"}, {"measurement": "susceptibility category", "setting": "isolate AB21", "result": "I (Intermediate 14-16)"}, {"measurement": "Inhibition zone", "setting": "isolate AB21", "result": 14, "unit": "mm"}, {"measurement": "susceptibility category", "setting": "isolate AB22", "result": "I (Intermediate 14-16)"}, {"measurement": "Inhibition zone", "setting": "isolate AB22", "result": 14, "unit": "mm"}, {"measurement": "susceptibility category", "setting": "isolate AB23", "result": "R (Resistant ≤13)"}, {"measurement": "Inhibition zone", "setting": "isolate AB23", "result": 11, "unit": "mm"}, {"measurement": "susceptibility category", "setting": "isolate AB24", "result": "R (Resistant ≤13)"}, {"measurement": "Inhibition zone", "setting": "isolate AB24", "result": 12, "unit": "mm"}, {"measurement": "susceptibility category", "setting": "isolate AB25", "result": "I (Intermediate 14-16)"}, {"measurement": "Inhibition zone", "setting": "isolate AB25", "result": 14, "unit": "mm"}, {"measurement": "susceptibility category", "setting": "isolate AB26", "result": "R (Resistant ≤13)"}, {"measurement": "Inhibition zone", "setting": "isolate AB26", "result": "NZ"}, {"measurement": "susceptibility category", "setting": "isolate AB27", "result": "R (Resistant ≤13)"}, {"measurement": "Inhibition zone", "setting": "isolate AB27", "result": 8, "unit": "mm"}, {"measurement": "susceptibility category", "setting": "isolate AB28", "result": "I (Intermediate 14-16)"}, {"measurement": "Inhibition zone", "setting": "isolate AB28", "result": 15, "unit": "mm"}, {"measurement": "susceptibility category", "setting": "isolate AB29", "result": "I (Intermediate 14-16)"}, {"measurement": "Inhibition zone", "setting": "isolate AB29", "result": 15, "unit": "mm"}, {"measurement": "susceptibility category", "setting": "isolate AB30", "result": "I (Intermediate 14-16)"}, {"measurement": "Inhibition zone", "setting": "isolate AB30", "result": 15, "unit": "mm"}, {"measurement": "susceptibility category", "setting": "isolate AB31", "result": "R (Resistant ≤13)"}, {"measurement": "Inhibition zone", "setting": "isolate AB31", "result": 10, "unit": "mm"}, {"measurement": "susceptibility category", "setting": "isolate AB32", "result": "S (Sensitive ≥17)"}, {"measurement": "Inhibition zone", "setting": "isolate AB32", "result": 18, "unit": "mm"}, {"measurement": "susceptibility category", "setting": "isolate AB33", "result": "S (Sensitive ≥17)"}, {"measurement": "Inhibition zone", "setting": "isolate AB33", "result": 30, "unit": "mm"}]}
